# Results published in PubChem BioAssay (NCI).
#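 Five compound concentrations were applied to cells in 96-well plates for 48 hours; endpoints were derived by simple linear interpolation of the resulting dose-response curve. At the GI50, growth is halved. TGI: total growth inhibition.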
# Legend:
# Test in all cases: NCI anticancer screen, dose series, 48 h
# 786-0 renal = test system: 786-0 renal
# A498 renal = test system: A498 renal
# A549 NSCLC = test system: A549 NSCLC
# ACHN renal = test system: ACHN renal
# BT-549 breast = test system: BT-549 breast
# CAKI-1 renal = test system: CAKI-1 renal
# CCRF-CEM leukemia = test system: CCRF-CEM leukemia
# COLO 205 colon = test system: COLO 205 colon
# DU-145 prostate = test system: DU-145 prostate
# EKVX NSCLC = test system: EKVX NSCLC
# HCC-2998 colon = test system: HCC-2998 colon
# HCT-116 colon = test system: HCT-116 colon
# HCT-15 colon = test system: HCT-15 colon
# HL-60(TB) leukemia = test system: HL-60(TB) leukemia
# HOP-62 NSCLC = test system: HOP-62 NSCLC
# HS 578T breast = test system: HS 578T breast
# HT29 colon = test system: HT29 colon
# IGROV1 ovarian = test system: IGROV1 ovarian
# K-562 leukemia = test system: K-562 leukemia
# KM12 colon = test system: KM12 colon
# LOX IMVI melanoma = test system: LOX IMVI melanoma
# M14 melanoma = test system: M14 melanoma
# MALME-3M melanoma = test system: MALME-3M melanoma
# MCF7 breast = test system: MCF7 breast
# MDA-MB-231 breast = test system: MDA-MB-231 breast
# MDA-MB-435 = test system: MDA-MB-435
# MOLT-4 leukemia = test system: MOLT-4 leukemia
# NCI-H226 lung = test system: NCI-H226 lung
# NCI-H23 lung = test system: NCI-H23 lung
# NCI-H460 lung = test system: NCI-H460 lung
# NCI-H522 lung = test system: NCI-H522 lung
# NCI/ADR-RES ovarian = test system: NCI/ADR-RES ovarian
# OVCAR-3 ovarian = test system: OVCAR-3 ovarian
# OVCAR-4 ovarian = test system: OVCAR-4 ovarian
# OVCAR-5 ovarian = test system: OVCAR-5 ovarian
# OVCAR-8 ovarian = test system: OVCAR-8 ovarian
# PC-3 prostate = test system: PC-3 prostate
# RPMI-8226 leukemia = test system: RPMI-8226 leukemia
# RXF 393 renal = test system: RXF 393 renal
# SF-268 CNS = test system: SF-268 CNS
# SF-295 CNS = test system: SF-295 CNS
# SF-539 CNS = test system: SF-539 CNS
# SK-MEL-2 melanoma = test system: SK-MEL-2 melanoma
# SK-MEL-28 melanoma = test system: SK-MEL-28 melanoma
# SK-MEL-5 melanoma = test system: SK-MEL-5 melanoma
# SK-OV-3 ovarian = test system: SK-OV-3 ovarian
# SN12C renal = test system: SN12C renal
# SNB-19 CNS = test system: SNB-19 CNS
# SNB-75 CNS = test system: SNB-75 CNS
# SR leukemia = test system: SR leukemia
# SW-620 colon = test system: SW-620 colon
# T-47D breast = test system: T-47D breast
# TK-10 renal = test system: TK-10 renal
# U251 CNS = test system: U251 CNS
# UACC-257 melanoma = test system: UACC-257 melanoma
# UACC-62 melanoma = test system: UACC-62 melanoma
# UO-31 renal = test system: UO-31 renal
compound,measurement,setting,value
CCn1c(-c2nonc2N)nc2c(C#CC(C)(C)O)nc(OC[C@@H](N)c3ccccc3)cc21,GI50,786-0 renal,2.98 µM
same,TGI,786-0 renal,6.35 µM
same,GI50,A498 renal,2.2 µM
same,TGI,A498 renal,12.4 µM
same,GI50,A549 NSCLC,4.36 µM
same,TGI,A549 NSCLC,9.18 µM
same,GI50,ACHN renal,4.17 µM
same,TGI,ACHN renal,9.42 µM
same,GI50,BT-549 breast,3.94 µM
same,TGI,BT-549 breast,7.48 µM
same,GI50,CAKI-1 renal,6.53 µM
same,TGI,CAKI-1 renal,14.1 µM
same,GI50,CCRF-CEM leukemia,4.08 µM
same,TGI,CCRF-CEM leukemia,23.3 µM
same,GI50,COLO 205 colon,4.68 µM
same,TGI,COLO 205 colon,8.31 µM
same,GI50,DU-145 prostate,4.45 µM
same,TGI,DU-145 prostate,8.85 µM
same,GI50,EKVX NSCLC,10.4 µM
same,TGI,EKVX NSCLC,22.4 µM
same,GI50,HCC-2998 colon,4.31 µM
same,TGI,HCC-2998 colon,8.14 µM
same,GI50,HCT-116 colon,4.13 µM
same,TGI,HCT-116 colon,7.63 µM
same,GI50,HCT-15 colon,5.78 µM
same,TGI,HCT-15 colon,21.1 µM
same,GI50,HL-60(TB) leukemia,5.23 µM
same,TGI,HL-60(TB) leukemia,10.3 µM
same,GI50,HOP-62 NSCLC,6.09 µM
same,TGI,HOP-62 NSCLC,10.2 µM
same,GI50,HS 578T breast,4.56 µM
same,TGI,HS 578T breast,10.7 µM
same,GI50,HT29 colon,4.9 µM
same,TGI,HT29 colon,9.53 µM
same,GI50,IGROV1 ovarian,5.04 µM
same,TGI,IGROV1 ovarian,10.4 µM
same,GI50,K-562 leukemia,5.19 µM
same,TGI,K-562 leukemia,14.1 µM
same,GI50,KM12 colon,3.05 µM
same,TGI,KM12 colon,6.75 µM
same,GI50,LOX IMVI melanoma,4.2 µM
same,TGI,LOX IMVI melanoma,8.82 µM
same,GI50,M14 melanoma,4.52 µM
same,TGI,M14 melanoma,8.11 µM
same,GI50,MALME-3M melanoma,5.46 µM
same,TGI,MALME-3M melanoma,9.77 µM
same,GI50,MCF7 breast,2.94 µM
same,TGI,MCF7 breast,6.12 µM
same,GI50,MDA-MB-231 breast,4.68 µM
same,TGI,MDA-MB-231 breast,8.86 µM
same,GI50,MDA-MB-435,5.22 µM
same,TGI,MDA-MB-435,9.81 µM
same,GI50,MOLT-4 leukemia,4.42 µM
same,TGI,MOLT-4 leukemia,16 µM
same,GI50,NCI-H226 lung,11.9 µM
same,TGI,NCI-H226 lung,16.2 µM
same,GI50,NCI-H23 lung,5.13 µM
same,TGI,NCI-H23 lung,10.8 µM
same,GI50,NCI-H460 lung,3.97 µM
same,TGI,NCI-H460 lung,8.12 µM
same,GI50,NCI-H522 lung,4.28 µM
same,TGI,NCI-H522 lung,7.9 µM
same,GI50,NCI/ADR-RES ovarian,5.16 µM
same,TGI,NCI/ADR-RES ovarian,11.7 µM
same,GI50,OVCAR-3 ovarian,4.24 µM
same,TGI,OVCAR-3 ovarian,8.23 µM
same,GI50,OVCAR-4 ovarian,6.78 µM
same,TGI,OVCAR-4 ovarian,13.3 µM
same,GI50,OVCAR-5 ovarian,7.92 µM
same,TGI,OVCAR-5 ovarian,15.1 µM
same,GI50,OVCAR-8 ovarian,4.45 µM
same,TGI,OVCAR-8 ovarian,8.83 µM
same,GI50,PC-3 prostate,7.73 µM
same,TGI,PC-3 prostate,25 µM
same,GI50,RPMI-8226 leukemia,6.51 µM
same,TGI,RPMI-8226 leukemia,15.5 µM
same,GI50,RXF 393 renal,2.85 µM
same,TGI,RXF 393 renal,5.97 µM
same,GI50,SF-268 CNS,5.04 µM
same,TGI,SF-268 CNS,9.22 µM
same,GI50,SF-295 CNS,4.59 µM
same,TGI,SF-295 CNS,9.63 µM
same,GI50,SF-539 CNS,3.73 µM
same,TGI,SF-539 CNS,7.71 µM
same,GI50,SK-MEL-2 melanoma,5.83 µM
same,TGI,SK-MEL-2 melanoma,10.2 µM
same,GI50,SK-MEL-28 melanoma,4.85 µM
same,TGI,SK-MEL-28 melanoma,8.47 µM
same,GI50,SK-MEL-5 melanoma,3.99 µM
same,TGI,SK-MEL-5 melanoma,7.37 µM
same,GI50,SK-OV-3 ovarian,4.16 µM
same,TGI,SK-OV-3 ovarian,9.47 µM
same,GI50,SN12C renal,3.96 µM
same,TGI,SN12C renal,7.66 µM
same,GI50,SNB-19 CNS,6 µM
same,TGI,SNB-19 CNS,11.6 µM
same,GI50,SNB-75 CNS,2.45 µM
same,TGI,SNB-75 CNS,5.66 µM
same,GI50,SR leukemia,5.67 µM
same,TGI,SR leukemia,16.8 µM
same,GI50,SW-620 colon,4.58 µM
same,TGI,SW-620 colon,9.5 µM
same,GI50,T-47D breast,3.8 µM
same,TGI,T-47D breast,8.24 µM
same,GI50,TK-10 renal,5.09 µM
same,TGI,TK-10 renal,11.3 µM
same,GI50,U251 CNS,3.98 µM
same,TGI,U251 CNS,7.63 µM
same,GI50,UACC-257 melanoma,5.67 µM
same,TGI,UACC-257 melanoma,9.83 µM
same,GI50,UACC-62 melanoma,4.89 µM
same,TGI,UACC-62 melanoma,8.79 µM
same,GI50,UO-31 renal,5.08 µM
same,TGI,UO-31 renal,9.4 µM
